Source: patent US5763573A, “GTPase activating protein fragments” (Chiron Corporation, priority 1995, dated 1998)

How the values were obtained:
ras p21 protein = assay: Filter assay of ras p21 hydrolysis of 32-P gamma-GTP with and without GAP; assay type: biochemical; details: FIG. 13; presence and absence of GAP; 30 minutes at room temperature
Procedure: The above four peptides, in the following two experiments, were tested for their abilities to inhibit the hydrolysis of GTP by ras p21 protein, in the presence and absence of GAP. The first experiment involved peptides G65, G73 and 891. It was carried out as follows: purified wild type ras p21 protein was incubated with 0.25 μM 32-P gamma-GTP in 100 mM NaPO4, pH 6.8, 0.5 mM DTT, 0.5 mM EDTA, 0.005% Na cholate, and 0.5 mg/ml BSA for 15 minutes at 30° C. The mixture was then diluted ten fold with TNM buffer (comprising 20 mM Tris-HCl, pH 7.0, 100 mM NaCl, 5 mM MgCl2). 20 μl (0.05 μg of p21) of this mixture was then combined with 2 μl of the peptide in 25 mM NaOAc, pH 5.5 and incubated for 5 minutes at room temperature. The GAP assay was initiated by the addition of 12 ng GAP in 5 μl TNM buffer with 1 mg/ml BSA or 5 μl TNM BSA buffer for the GAP independent reactions, and the resulting mixture was incubated for 30 minutes at room temperature. The samples were then filtered through nitrocellulose membranes and washed three times with cold TNM. The filters were dried and their radioactivity counted. […] In the presence of GAP, the radioactive ras p21-GTP complex is hydrolyzed to GDP and ras p21 protein, thus reducing the resulting amount of radioactive p21-GTP bound to the filter and consequently, the radioactive counts detected. […]

H-ras protein = H-ras protein (Homo sapiens, UniProt P01112); assay: Typical GAP assay with immunoprecipitated H-ras bound to α-32P-GTP, TLC; assay type: biochemical; details: sufficient GAP; 60 minutes at room temperature
Description: A typical GAP assay can be carried out as follows. Approximately 0.8 micrograms of H-ras protein obtained as described by Trahey, et al., supra was bound to α-32P-GTP followed by precipitation of the complex with 13 micrograms of an anti-ras antibody, 157-181, that recognizes the carboxyl terminal end of the molecule. Specifically, 157-181 recognizes the carboxyl terminal residues at positions 157-181. Adari et al., 1988 Science, […]:518. Next, 10 micrograms of sheep-anti-mouse IgG, and 10 microliters of protein A-Sepharose beads were added. As a control, the same reactants were combined except that rat IgG replaced 157-181, and goat anti-rat IgG replaced sheep anti-mouse IgG. The pellets were washed with 20 mM tris hydrochloride, pH 7.4, containing 20 mM sodium chloride, 1 mM magnesium chloride and 1 mM DTT and resuspended in the same solution. Four microliter aliquots of the immune complex were then mixed with 10 microliters of GAP, or, as a control, buffer without GAP. After 60 minutes incubation at room temperature the Sepharose beads were washed again, and the bound nucleotides analyzed using thin layer chromatography with 1M LiCl as the solvent. […] The assay detects GAP in a semi-quantitative, dose-dependent fashion. Quantitation can be improved by scraping the relevant regions of the plate and measuring cpm in GDP by use of a gamma counter.

Sequence of H-ras protein (P01112 whole entry): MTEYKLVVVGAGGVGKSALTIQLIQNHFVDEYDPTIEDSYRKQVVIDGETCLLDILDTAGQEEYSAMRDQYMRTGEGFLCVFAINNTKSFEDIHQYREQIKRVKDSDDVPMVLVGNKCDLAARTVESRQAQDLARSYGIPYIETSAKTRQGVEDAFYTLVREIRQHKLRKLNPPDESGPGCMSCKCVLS

| Substance | effect on hydrolysis of GTP (radioactive counts of ras p21-GTP complex on filter) (ras p21 protein) | hydrolysis of GTP to GDP (H-ras protein) |
| --- | --- | --- |
| peptide G73: peptide corresponding to amino acids positions 975-990 of the full length GAP (GNVPELPDTTEHSRTD; UniProt P20936 975-990, looked up, fragment) | do not affect |  |
| GAP: guanine triphosphatase activating protein purified from human placenta, about 115,000-120,000 daltons |  | near complete hydrolysis |
